Positions of bridges follow the written chain, without caps; N, C: chain ends. Non-standard residues stand in square brackets, D forms with d. Residues, ends and D or L forms follow the SMILES beside them. 2Nal = N[C@@H](Cc1ccc2ccccc2c1)C(=O)O; Nle = CCCC[C@H](N)C(=O)O
Tests used:
human TSP1 [1] = biological target: T1, human TSP1 (Homo sapiens, UniProt P07996); assay: Cell adhesion inhibition assay (HUVEC adhesion to TSP1-coated plate); type: cell-based; details: HUVEC adhesion to human platelet thrombospondin-coated plate, 2.5 hours, CellTiter-Glo; read-out: Cell adhesion IC50
Procedure, shortened: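 Plates coated overnight at 4 °C with 10 μg/mL human platelet TSP1 in TBS + 2 mM CaCl2, blocked with Lipidure, then preincubated 15–30 min with samples in DMEM/0.5% BSA. HUVECs (10000 cells/well) adhered for 2.5 h at 37 °C; adherent cells quantified by CellTiter-Glo luminescence and IC50 (nM) calculated.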
Target sequence in this assay (P07996 19-1170 limits assumed): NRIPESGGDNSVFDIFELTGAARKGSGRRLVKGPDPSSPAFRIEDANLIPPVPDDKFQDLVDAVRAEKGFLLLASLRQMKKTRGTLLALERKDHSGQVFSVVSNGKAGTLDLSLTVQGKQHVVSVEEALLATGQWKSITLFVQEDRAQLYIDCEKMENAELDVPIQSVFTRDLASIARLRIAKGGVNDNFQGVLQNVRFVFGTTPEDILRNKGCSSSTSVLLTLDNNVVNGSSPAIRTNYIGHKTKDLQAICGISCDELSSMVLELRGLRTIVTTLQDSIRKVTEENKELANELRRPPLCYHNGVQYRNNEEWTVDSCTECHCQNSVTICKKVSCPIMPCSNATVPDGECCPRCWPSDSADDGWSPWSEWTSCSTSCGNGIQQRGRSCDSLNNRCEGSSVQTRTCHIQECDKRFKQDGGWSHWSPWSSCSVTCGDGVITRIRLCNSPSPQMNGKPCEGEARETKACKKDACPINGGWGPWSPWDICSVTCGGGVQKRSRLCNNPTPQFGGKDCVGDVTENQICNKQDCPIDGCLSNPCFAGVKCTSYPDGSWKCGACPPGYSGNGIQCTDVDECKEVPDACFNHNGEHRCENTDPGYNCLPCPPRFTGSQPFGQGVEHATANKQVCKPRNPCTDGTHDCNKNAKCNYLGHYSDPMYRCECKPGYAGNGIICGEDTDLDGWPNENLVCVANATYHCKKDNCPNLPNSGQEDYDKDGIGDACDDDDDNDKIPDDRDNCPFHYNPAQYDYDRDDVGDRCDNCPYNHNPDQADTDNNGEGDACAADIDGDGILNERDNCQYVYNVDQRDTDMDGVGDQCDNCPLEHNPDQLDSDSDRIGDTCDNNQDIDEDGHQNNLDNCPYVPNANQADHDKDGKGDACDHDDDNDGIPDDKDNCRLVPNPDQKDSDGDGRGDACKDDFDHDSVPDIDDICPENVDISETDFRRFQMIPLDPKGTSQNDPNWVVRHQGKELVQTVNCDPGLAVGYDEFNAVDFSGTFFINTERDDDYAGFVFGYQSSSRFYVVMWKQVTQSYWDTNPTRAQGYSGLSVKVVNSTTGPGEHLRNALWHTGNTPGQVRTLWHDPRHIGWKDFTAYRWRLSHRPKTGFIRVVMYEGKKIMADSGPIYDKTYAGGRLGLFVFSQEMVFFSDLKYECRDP

C57BL/6 mice = assay: Blood flow improvement tests (femoral artery/vein ligation and excision, laser Doppler); type: in vivo; details: after 7 days of surgery; for % change (vs. vehicle): blood flow ratio ischemia/nonischemia; for %, ischemia/nonischemia: blood flow ratio of ischemic limb to non-ischemic limb, laser Doppler
Excerpt: (Test Example 3) Blood Flow Improvement Tests
Seven to nine-week-old male C57BL/6 mice were purchased from Charles River Laboratories Japan Inc., and acclimated over one week by feeding with a FR-2 solid diet (produced by Funabashi Farm Co., Ltd.). The rearing facility switched between light and dark modes in a 12-hour cycle with light turning on at 7 a.m and turning off at 7 p.m. Under isofluorane inhalation anaesthesia, the left thighs of the mice were dissected, and the superficial femoral arteries and veins (from just below the deep femoral arteries to the popliteal artery and vein) were ligated and excised. After animal models were made, the test substances (Compounds 24, 28, 40 to 45, and 58) were each dissolved in a solution of 20 mM lactic acid and 5% (w/v) Lutrol, and intraperitoneally injected into mice once daily.
(Blood Flow Improvement Test 1)
Compound 24 (10 mg/kg)-treated group
(Blood Flow Improvement Test 2)
Compound 28 (10 mg/kg)-treated group
(Blood Flow Improvement Test 3)
Compound 40 (10 mg/kg)-treated group
Compound 41 (10 mg/kg)-treated group
(Blood Flow Improvement Test 4)
Compound 42 (10 mg/kg)-treated group
Compound 43 (10 mg/kg)-treated group
Compound 44 (10 mg/kg)-treated group
Compound 45 (10 mg/kg)-treated group
(Blood Flow Improvement Test 5)
Compound 58 (10 mg/kg)-treated group
Blood flows were measured in ischemic (left) and non-ischemic (right) limbs using a laser Doppler perfusion imager (LDPI; PIM III, Perimed, Inc.). Blood flow values were evaluated by the ratio of ischemic limb flow to non-ischemic limb flow.
Blood flow values from the mice were the lowest immediately after surgery and then gradually recovered. All of the test substances investigated in the animal models of this study improved blood flow recovery after surgery as compared to vehicle treatment. After 7 days of surgery, the blood flows in the test substance-treated groups were higher than in the vehicle-treated mice.

human TSP1 [2] = biological target: T1, human TSP1; assay: Interaction analysis by SPR (Biacore T200); type: binding; details: single-cycle kinetics, 25° C., KD from ka and kd
Method: (Test Example 2) Interaction Analysis by SPR
Interaction analysis by SPR was performed using Biacore T200 (produced by GE Healthcare).
I. Immobilization of Recombinant-hTSP1
First, 500 μM NiCl2 was injected over an NTA-Chip (produced by GE Healthcare, BR100532) at a flow rate of 5 μL/min. for 1 minute to thereby activate NTA groups. Then, an EDC/NHS mixture was injected at a flow rate of 10 μL/min. for 7 minutes to thereby activate the carboxyl groups of dextran. Recombinant-hTSP1 was injected at a flow rate of 10 μL/min. for 7 minutes to immobilize the TSP1 on the substrate surfaces with activated NTA and carboxyl groups. Ethanolamine was injected at a flow rate of 10 μL/min. for 7 minutes to thereby deactivate unreacted, activated carboxyl groups.
The immobilization buffer used was prepared by diluting 10×HBS-P+(produced by GE Healthcare, BR100671) to 1-fold and adding 5 mM CaCl2.
The reagents EDC/NHS/ethanolamine used were included in the Amine-coupling kit (BR100050) commercially available from GE Healthcare.
The measurement buffer was prepared based on the following composition profile:
The measurement was performed in the following steps.
For the purpose of equilibrating substrate surfaces, the measurement buffer was injected under the following conditions:
contact time: 60 sec., dissociation time: 120 sec., flow rate: 50 μL/min., temperature: 25° C.
The injection under the same conditions was repeated five times to ensure equilibration.
Since Biacore T200 is highly responsive to change in DMSO concentrations, DMSO solutions were sequentially injected at concentrations of 4%, 4.4%, 4.8%, 5.2%, 5.6%, and 6% to correct for DMSO effects.
The method adopted for sample measurement was a single-cycle kinetics method which is effective for samples showing low dissociative behavior. The advantage of this method is that since sample solutions at different concentration regions are injected in the same cycle, the influence between different cycles in association with low dissociation can be ignored in the analysis.
A 3-fold diluted series of sample solutions were prepared in five concentrations (100, 33, 11, 3.7 and 1.2 nM), and sequentially injected at a flow rate of 50 μL/min. for 3 minutes in the order from lowest to highest concentration. After the highest concentration of diluted solution was injected, a dissociation time of 20 to 30 minutes was spent.
Before samples were measured, the measurement buffer was injected alone under the same conditions to establish a baseline.
The analysis was conducted using the evaluation software provided with Biacore T100 and T200. A DMSO correction curve obtained by solvent correction measurements was applied for the analysis. Kinetics fitting was done on the difference data obtained by subtracting the baseline data from sample measurement data.
KD values were calculated based on the association rate constant (ka) and dissociation rate constant (kd).
Target sequence in this assay (P07996 19-1170): as the sequence (P07996 19-1170 limits assumed) above

SMILES | IC50 (human TSP1 [1]) | % change (vs. vehicle) (C57BL/6 mice) | %, ischemia/nonischemia (C57BL/6 mice) | Kd (human TSP1 [2])
CC[C@H](C)[C@@H]1NC(=O)[C@H](Cc2ccc3ccccc3c2)NC(=O)CSC[C@@H](C(N)=O)NC(=O)[C@H](C(C)C)NC(=O)[C@H](Cc2c[nH]c3ccccc23)NC(=O)[C@H](CCCCN)NC(=O)[C@H](C(C)C)NC(=O)[C@H](Cc2c[nH]c3ccccc23)NC(=O)[C@H](CC(=O)O)NC(=O)[C@H](CCCNC(=N)N)NC(=O)CNC(=O)[C@H](CO)NC1=O [Compound 40] ({CH2CO}-[2Nal]ISGRDWVKWVC-NH2; thioether N-12) | 16.1 nM | 6.4% | 46.53% | –
CC[C@H](C)[C@@H]1NC(=O)[C@H](Cc2ccc3ccccc3c2)NC(=O)CSC[C@@H](C(N)=O)NC(=O)[C@H](C(C)C)NC(=O)[C@H](Cc2c[nH]c3ccccc23)NC(=O)[C@H](CCCCN)NC(=O)[C@H](C(C)C)NC(=O)[C@H](Cc2c[nH]c3ccccc23)NC(=O)[C@H](CC(N)=O)NC(=O)[C@H](CCCCN)NC(=O)CNC(=O)[C@H](CO)NC1=O [Compound 43] ({CH2CO}-[2Nal]ISGKNWVKWVC-NH2; thioether N-12) | 9.2 nM | 30.9% | 48.86% | 0.13 nM
CC(C)[C@@H]1NC(=O)[C@H](Cc2c[nH]c3ccccc23)NC(=O)[C@H](CCCCN)NC(=O)[C@H](C(C)C)NC(=O)[C@H](Cc2c[nH]c3ccccc23)NC(=O)[C@H](CC(N)=O)NC(=O)[C@H](CCCNC(=N)N)NC(=O)CNC(=O)[C@H](CO)NC(=O)[C@H](CCCNC(=N)N)NC(=O)[C@H](Cc2ccccc2)NC(=O)CSC[C@@H](C(N)=O)NC1=O [Compound 6] ({CH2CO}-FRSGRNWVKWVC-NH2; thioether N-12) | 27.3 nM | – | – | 0.44 nM
CC[C@H](C)[C@@H]1NC(=O)[C@H](Cc2ccc3ccccc3c2)NC(=O)CSC[C@@H](C(N)=O)NC(=O)[C@H](C(C)C)NC(=O)[C@H](Cc2c[nH]c3ccccc23)NC(=O)[C@H](CCCCN)NC(=O)[C@H](C(C)C)NC(=O)[C@H](Cc2c[nH]c3ccccc23)NC(=O)[C@H](CC(N)=O)NC(=O)[C@H](Cc2c[nH]cn2)NC(=O)CNC(=O)[C@H](CO)NC1=O [Compound 42] ({CH2CO}-[2Nal]ISGHNWVKWVC-NH2; thioether N-12) | – | 27.0% | 47.40% | 0.44 nM
CC[C@H](C)[C@@H]1NC(=O)[C@H](Cc2ccc3ccccc3c2)NC(=O)CSC[C@@H](C(N)=O)NC(=O)[C@H](C(C)C)NC(=O)[C@H](Cc2c[nH]c3ccccc23)NC(=O)[C@H](CCCCN)NC(=O)[C@H](C(C)C)NC(=O)[C@H](Cc2c[nH]c3ccccc23)NC(=O)[C@H](CC(N)=O)NC(=O)[C@H](CO)NC(=O)CNC(=O)[C@H](CO)NC1=O [Compound 44] ({CH2CO}-[2Nal]ISGSNWVKWVC-NH2; thioether N-12) | 30.3 nM | 10.5% | 41.25% | –
CCCC[C@@H]1NC(=O)[C@H](Cc2c[nH]c3ccccc23)NC(=O)[C@H](CC(=O)O)NC(=O)[C@H](CCCNC(=N)N)NC(=O)CNC(=O)[C@H](CO)NC(=O)[C@H]([C@@H](C)CC)NC(=O)[C@H](Cc2ccc3ccccc3c2)NC(=O)CSC[C@@H](C(N)=O)NC(=O)[C@H](C(C)C)NC(=O)[C@H](Cc2c[nH]c3ccccc23)NC(=O)[C@H](CCCCN)NC1=O [Compound 45] ({CH2CO}-[2Nal]ISGRDW[Nle]KWVC-NH2; thioether N-12) | – | 76.0% | 65.70% | 0.13 nM
CC[C@H](C)[C@@H]1NC(=O)[C@H](Cc2ccc3ccccc3c2)NC(=O)CSC[C@@H](C(N)=O)NC(=O)[C@H](C(C)C)NC(=O)[C@H](Cc2c[nH]c3ccccc23)NC(=O)[C@H](CCCCN)NC(=O)[C@H](C(C)C)NC(=O)[C@H](Cc2c[nH]c3ccccc23)NC(=O)[C@H](CC(N)=O)NC(=O)[C@H](CCCNC(=N)N)NC(=O)CNC(=O)[C@H](CO)NC1=O [Compound 24] ({CH2CO}-[2Nal]ISGRNWVKWVC-NH2; thioether N-12) | – | 4.9% | 41.20% | 0.12 nM
CC[C@H](C)[C@@H]1NC(=O)[C@H](Cc2ccc3ccccc3c2)NC(=O)CSC[C@@H](C(N)=O)NC(=O)[C@H](C(C)C)NC(=O)[C@H](Cc2c[nH]c3ccccc23)NC(=O)[C@H](Cc2c[nH]cn2)NC(=O)[C@H](C(C)C)NC(=O)[C@H](Cc2c[nH]c3ccccc23)NC(=O)[C@H](CC(N)=O)NC(=O)[C@H](CCCNC(=N)N)NC(=O)CNC(=O)[C@H](CO)NC1=O [Compound 41] ({CH2CO}-[2Nal]ISGRNWVHWVC-NH2; thioether N-12) | – | 32.7% | 58.05% | –
CCCC[C@@H]1NC(=O)[C@H](Cc2c[nH]c3ccccc23)NC(=O)[C@H](CC(=O)O)NC(=O)[C@H](CCCCN)NC(=O)CNC(=O)[C@H](CO)NC(=O)[C@H]([C@@H](C)CC)NC(=O)[C@H](Cc2ccc3ccccc3c2)NC(=O)CSC[C@@H](C(N)=O)NC(=O)[C@H](C(C)C)NC(=O)[C@H](Cc2c[nH]c3ccccc23)NC(=O)[C@H](CCCNC(=N)N)NC1=O [Compound 58] ({CH2CO}-[2Nal]ISGKDW[Nle]RWVC-NH2; thioether N-12) | 15.9 nM | 85.5% | 69.00% | 0.091 nM
CC[C@H](C)[C@@H]1NC(=O)[C@H](Cc2ccc3ccccc3c2)NC(=O)CSC[C@@H](C(N)=O)NC(=O)[C@H](C(C)C)NC(=O)[C@H](Cc2c[nH]c3ccccc23)NC(=O)[C@H](CCCCN)NC(=O)[C@H](C(C)C)NC(=O)[C@H](Cc2ccc3ccccc3c2)NC(=O)[C@H](CC(N)=O)NC(=O)[C@H](CCCNC(=N)N)NC(=O)CNC(=O)[C@H](CO)NC1=O [Compound 28] ({CH2CO}-[2Nal]ISGRN[2Nal]VKWVC-NH2; thioether N-12) | – | 1.8% | 40.79% | –
CC[C@H](C)[C@@H]1NC(=O)[C@H](Cc2ccccc2)NC(=O)CSC[C@@H](C(N)=O)NC(=O)[C@H](C(C)C)NC(=O)[C@H](Cc2c[nH]c3ccccc23)NC(=O)[C@H](CCCCN)NC(=O)[C@H](C(C)C)NC(=O)[C@H](Cc2c[nH]c3ccccc23)NC(=O)[C@H](CC(N)=O)NC(=O)[C@H](CCCCN)NC(=O)CNC(=O)[C@H](CO)NC1=O [Compound 7] ({CH2CO}-FISGKNWVKWVC-NH2; thioether N-12) | – | – | – | 0.12 nM

Source: patent US11149066B2, “Thrombospondin 1-binding peptide” (DAIICHI SANKYO COMPANY, LIMITED, priority 2016, dated 2021)
